Each structure is given as a SMILES string. Structures can show the parent of a compound that is named as a salt.

Consider 21 molecules from ChEMBL document CHEMBL3046918, “Conventional and microwave-assisted synthesis of imidazole and guanidine derivatives and their biological evaluation” (2011).

Holding throughout (assay type): functional
One assay relates to HOP-62. The experiment in a line: Growth inhibition of Homo sapiens (human) HOP62 cells at 10^-5 M after 48 hr by SRB assay. Conditions: HOP-62, 48 h, read-out: GI. On the technique in general: Sulforhodamine B stains cellular protein and so reports cell mass.
Another assay concerns A549. The experiment in a line: Growth inhibition of Homo sapiens (human) A549 cells at 10^-5 M after 48 hr by SRB assay. To be noted: A549, 48 h, read-out: GI.
The test system of the next assay is SF-295. The experiment in a line: Growth inhibition of Homo sapiens (human) SF295 cells at 10^-5 M after 48 hr by SRB assay. To be noted: SF-295, 48 h, read-out: GI.
Another assay deals with Rattus norvegicus. In words: Anti-inflammatory activity in Rattus norvegicus Charles Foster albino (rat) assessed as inhibition of carrageenan-induced paw edema at 50 mg/kg, po administered 30 min prior to carrageenan-challenge measured up to 3 hr relative to control. Further details: scale not given: the % may be the effect or the level left. In general terms: The carrageenan paw model is a standard test of acute inflammation.

For the next assay, the system named is MCF7. The experiment in a line: Growth inhibition of Homo sapiens (human) MCF7 cells at 10^-5 M after 48 hr by SRB assay. To be noted: MCF7, 48 h, read-out: GI.
Another assay concerns PC-3. In words: Growth inhibition of Homo sapiens (human) PC3 cells at 10^-5 M after 48 hr by SRB assay. To be noted: PC-3, 48 h, read-out: GI.
In the next assay the test system is IGROV-1. In words: Growth inhibition of Homo sapiens (human) IGROV1 cells at 10^-5 M after 48 hr by SRB assay. Conditions: IGROV-1, 48 h, read-out: GI.

`O=C1c2ccccc2C(=O)c2c1ccc1nc(-c3c(O)ccc4ccccc34)[nH]c21`: the inhibition of growth at 10 µM in the assay with HOP-62 worked out at 78%; with A549 it was 97%; in the assay on SF-295 it was 92%; in the assay on MCF7, 61%; in the assay on PC-3, 87%; in the assay with IGROV-1 it was 82%. Besides, the Activity in the assay with Rattus norvegicus stood at 22%.

For the molecule `Cc1ccc(-c2nc3ccc4c(c3[nH]2)C(=O)c2ccccc2C4=O)s1`, the inhibition of growth at 10 µM was determined as 6% in the assay with HOP-62; 35% in the assay with A549; 43% in the assay on SF-295; 47% in the assay on MCF7; 14% with PC-3; 8% with IGROV-1. Also, in the assay with Rattus norvegicus, the Activity is given as 26%.

`N=C(/N=C\c1ccc2ccccc2c1)Nc1nc2ccccc2[nH]1`: the inhibition of growth at 10 µM with HOP-62 was determined as 18%; in the assay with A549, 8%; in the assay with SF-295 it was 42%; in the assay on MCF7, 6%; in the assay with PC-3, 10%; with IGROV-1, 26%. Besides, the Activity in the assay on Rattus norvegicus is 26%.

Consider `Cn1cccc1-c1nc2cc3nc4ccccc4nc3cc2[nH]1`, for which the inhibition of growth at 10 µM was determined as 12% in the assay with HOP-62; 36% in the assay on A549; 40% in the assay on SF-295; 41% in the assay with MCF7; 43% in the assay on PC-3; 26% in the assay with IGROV-1. The Activity with Rattus norvegicus was 14%.

For the molecule `Cc1ccsc1-c1nc2cc3nc4ccccc4nc3cc2[nH]1`, the inhibition of growth at 10 µM in the assay with HOP-62 was 4%; in the assay with A549, 27%; with SF-295, 28%; in the assay with MCF7, 17%; with PC-3, 12%; with IGROV-1, 30%. For the same molecule, the Activity with Rattus norvegicus is recorded as 38%.

As to `CC(=O)O[C@H]1C(=O)[C@@]2(C)[C@H]([C@H](OC(=O)c3ccccc3)[C@]3(O)C[C@H](OC(=O)[C@H](O)[C@@H](NC(=O)c4ccccc4)c4ccccc4)C(C)=C1C3(C)C)[C@]1(OC(C)=O)CO[C@@H]1C[C@@H]2O` [PACLITAXEL], the inhibition of growth at 10 µM was 37% with HOP-62, 54% in the assay on A549 and 37% with IGROV-1.

In the case of `O=C1c2ccccc2C(=O)c2c1ccc1nc(-c3cccc4ccccc34)[nH]c21`, the inhibition of growth at 10 µM in the assay with HOP-62 came out at 61%; with A549, 93%; in the assay on SF-295, 81%; in the assay with MCF7 it was 76%; with PC-3, 71%; with IGROV-1, 71%. Also, the Activity in the assay with Rattus norvegicus is on record as 14%.

As for `Cn1cccc1-c1nc2ccc3c(c2[nH]1)C(=O)c1ccccc1C3=O`, the inhibition of growth at 10 µM with HOP-62 amounted to 11%; in the assay on A549, 31%; in the assay on SF-295, 52%; with MCF7, 72%; in the assay on PC-3, 28%; with IGROV-1, 27%. Further, the Activity in the assay on Rattus norvegicus was 34%.

For `CO[C@@]12[C@H](COC(N)=O)C3=C(C(=O)C(C)=C(N)C3=O)N1C[C@@H]1N[C@@H]12` [MITOMYCIN], the inhibition of growth at 10 µM in the assay with SF-295 was determined as 43%; in the assay with PC-3, 61%; with IGROV-1 it was 47%.

Take `O=C1c2ccccc2C(=O)c2c1ccc1nc(-c3ccc4ccccc4c3)[nH]c21`: the inhibition of growth at 10 µM turned out to be 9% in the assay with HOP-62; 2% with A549; 34% in the assay with SF-295; 26% with MCF7; 15% in the assay with PC-3; 9% in the assay with IGROV-1. Besides, the Activity in the assay on Rattus norvegicus turned out to be 35%.

As to `Cc1ccsc1-c1nc2ccc3c(c2[nH]1)C(=O)c1ccccc1C3=O`, the inhibition of growth at 10 µM in the assay on HOP-62 came out at 19%; in the assay with A549, 15%; with SF-295 it was 30%; with MCF7, 36%; in the assay on PC-3, 16%; in the assay on IGROV-1, 6%. Also, in the assay on Rattus norvegicus, the Activity is given as 16%.

As for `Cn1cccc1/C=N/C(=N)Nc1nc2ccccc2[nH]1`, the inhibition of growth at 10 µM in the assay on HOP-62 is 28%; in the assay on A549 it was 12%; in the assay on SF-295 it was 40%; with MCF7 it was 24%; in the assay on PC-3 it was 1%; with IGROV-1, 23%. Also, in the assay with Rattus norvegicus, the Activity stood at 0%.

Regarding `Cc1ccc(-c2nc3cc4nc5ccccc5nc4cc3[nH]2)s1`, the inhibition of growth at 10 µM came out at 20% in the assay on HOP-62; 53% with A549; 32% in the assay on SF-295; 56% in the assay with MCF7; 29% in the assay with PC-3; 18% in the assay on IGROV-1. Also, the Activity with Rattus norvegicus came out at 10%.

In the case of `c1ccc2c(-c3nc4cc5nc6ccccc6nc5cc4[nH]3)cccc2c1`, the inhibition of growth at 10 µM in the assay on HOP-62 came to 98%; in the assay on A549 it was 97%; with SF-295 it was 100%; with MCF7, 88%; in the assay with PC-3, 97%; with IGROV-1 it was 92%. For the same molecule, the Activity with Rattus norvegicus is recorded as 19%.

With `N=C(/N=C/c1cccc2ccccc12)Nc1nc2ccccc2[nH]1`, the inhibition of growth at 10 µM with HOP-62 came to 26%; in the assay on A549 it was 9%; with SF-295 it was 40%; in the assay with MCF7, 25%; with PC-3 it was 13%; in the assay on IGROV-1, 13%. In the assay with Rattus norvegicus, the Activity was determined as 34%.

With `COc1cccc2c1C(=O)c1c(O)c3c(c(O)c1C2=O)C[C@@](O)(C(=O)CO)C[C@@H]3O[C@H]1C[C@H](N)[C@H](O)[C@H](C)O1` [DOXORUBICIN HYDROCHLORIDE], the inhibition of growth at 10 µM was 32% in the assay with HOP-62; 27% in the assay on A549; 69% in the assay with SF-295; 72% with MCF7; 39% with IGROV-1.

Take `Cc1ccc(/C=N\C(=N)Nc2nc3ccccc3[nH]2)s1`: the inhibition of growth at 10 µM with HOP-62 came to 14%; in the assay on A549, 13%; in the assay with SF-295, 36%; in the assay with MCF7 it was 0%; in the assay with PC-3 it was 8%; in the assay on IGROV-1, 20%. For the same molecule, the Activity in the assay with Rattus norvegicus is 24%.

With `Cc1ccsc1/C=N\C(=N)Nc1nc2ccccc2[nH]1`, the inhibition of growth at 10 µM with HOP-62 worked out at 13%; in the assay on A549 it was 3%; in the assay on SF-295 it was 40%; in the assay on MCF7, 9%; with PC-3, 10%; in the assay with IGROV-1 it was 17%. In the assay with Rattus norvegicus, the Activity is recorded as 38%.

As to `Oc1ccc2ccccc2c1-c1nc2cc3nc4ccccc4nc3cc2[nH]1`, the inhibition of growth at 10 µM was 90% in the assay with HOP-62; 87% with A549; 97% with SF-295; 84% in the assay on MCF7; 81% in the assay with PC-3; 84% with IGROV-1. Further, in the assay on Rattus norvegicus, the Activity was found to be 30%.

For the molecule `c1ccc2cc(-c3nc4cc5nc6ccccc6nc5cc4[nH]3)ccc2c1`, the inhibition of growth at 10 µM with HOP-62 turned out to be 9%; in the assay on A549, 26%; in the assay with SF-295, 20%; in the assay on MCF7, 29%; in the assay with PC-3, 22%; in the assay on IGROV-1, 19%. In addition, the Activity with Rattus norvegicus came to 28%.

Consider `N=C(/N=C/c1c(O)ccc2ccccc12)Nc1nc2ccccc2[nH]1`, for which the inhibition of growth at 10 µM in the assay on HOP-62 is 9%; in the assay on A549, 2%; with SF-295, 34%; in the assay with MCF7 it was 4%; in the assay with PC-3, 15%; with IGROV-1, 23%. Further, the Activity in the assay with Rattus norvegicus was 0%.
